Reference: US20190381108A1, “COMPOSITION FOR IMPROVING BONE HEALTH, INCLUDING FUNCTIONAL FERMENTED MATERIAL USING OYSTERS” (Jeju National University Industry-Academic Cooperation …, priority 2018, published 2019)

Tested on: RAW 264.7 cells
Assay: Production of ROS in cells (DCF-DA, flow cytometry)
Type: cell-based, murine
Details: RANKL 100 ng/mL; DCF-DA staining
Procedure: After RAW 264.7 cells were aliquoted at 5×10^4 cells/well into 6-well plates and stabilized for 24 hours, RAW 264.7 cells were induced into differentiation by RANKL (100 ng/mL), treated with FO at each concentration, cultured for 5 days, and then stained at 37° C. for 30 minutes by treatment with 10 μM DCF-DA, and then measured using flow cytometry.
It is known that oxidative stress in cells occurs during the differentiation of osteoclasts induced by RANKL. Therefore, the effects of FO on the production of ROS induced by RANKL was confirmed through DCF-DA staining.

CC(=O)N[C@@H](CS)C(=O)O [NAC]
ROS increased in the osteoclasts treated with RANKL: also similarly observed
